Legend:
M4Beu cell line [1] = test: In vitro cytotoxicity activity against M4 Beu, by colony forming assay; format: functional, cell-based; details: Homo sapiens
[2] = In vitro cytotoxicity activity against M4 Dau, by colony forming assay; format: functional
[3] = Comparative cellular uptake study performed on H-EMC-SS (chondrosarcoma cell line); format: functional, Homo sapiens
[4] = Glutathione-s-transferase activity of the compound, expressed as percentage of control.; format: functional
[5] = Alkylating activity of compound was determined by the NBP assay at 570 nm.; format: functional
[6] = In vitro cytotoxicity in chondrosarcoma cell line (H-EMC-SS) by Alamar blue assay; format: functional; details: Homo sapiens
MCF7S [7] = test: In vitro cytotoxicity activity against MCF7, by colony forming assay; format: functional, cell-based; details: Homo sapiens
[8] = Partition coefficient (logD) (octanol/phosphate buffer); format: physicochemical
M4Beu cell line [9] = test: Comparative cellular uptake study performed on M4 Beu (melanoma cell line); format: functional, Homo sapiens
[10] = In vitro cytotoxicity in chondrosarcoma cell line (H-EMC-SS) by Hoechst 33342 DNA Fluorometric assay; format: functional; details: Homo sapiens
B16 [11] = test: In vitro cytotoxicity activity against B16, by colony forming assay; format: functional, cell-based; details: Mus musculus
B16 [12] = test: In vitro cytotoxic activity against B16, by colony forming assay; format: functional, cell-based; details: Mus musculus
MCF7S [13] = test: In vitro cytotoxic activity against MCF7, by colony forming assay; format: functional, cell-based; details: Homo sapiens
M4Beu cell line [14] = test: In vitro cytotoxic activity against M4 Beu cells, by colony forming assay; format: functional, cell-based; details: Homo sapiens
[15] = In vitro cytotoxic activity against M4 Dau, by colony forming assay; format: functional
B16 [16] = test: In vitro cytotoxicity activity against B16 cells, by colony forming assay; format: functional, cell-based; details: Mus musculus
MCF7S [17] = test: In vitro cytotoxicity activity against MCF-7; format: functional, cell-based; details: Homo sapiens
[18] = In vitro cytotoxicity activity against M4 Dau by colony forming assay; format: functional

Row | Compound | IC50 (M4Beu cell line [1]) | IC50 [2] | Cellular uptake [3] | Glutathione-S-transferase activity (% of control) [4] | Alkylating activity [5] | CC50 [6] | IC50 (MCF7S [7]) | logD [8] | Cellular uptake (M4Beu cell line [9]) | CC50 [10] | IC50 (B16 [11]) | IC50 (B16 [12]) | IC50 (MCF7S [13]) | IC50 (M4Beu cell line [14]) | IC50 [15] | IC50 (B16 [16]) | logD ([8]; octanol/water) | IC50 (MCF7S [17]) | IC50 [18]
1 | C[N+](C)(C)CCCNC(=O)C(N)Cc1ccc(N(CCCl)CCCl)cc1.[Cl-] (centres undefined) | 14.4 µM | 3300 nM | 1.54 pmol/µL | 79% | 15.7 10e3·k | 1800 nM | 900 nM | -1.12 | 6.82 pmol/µL | 1200 nM | 19.5 µM |  |  |  |  |  |  |  | 
2 | C[N+](C)(C)CCCNC(=O)CCCc1ccc(N(CCCl)CCCl)cc1.[I-] |  |  | 2.97 pmol/µL | 55.4% | 40.4 10e3·k | 700 nM |  | 0.32 | 16.7 pmol/µL | 600 nM |  | 8.6 µM | 1200 nM | 5.1 µM | 1300 nM |  |  |  | 
3 | O=C(O)CCCc1ccc(N(CCCl)CCCl)cc1 [CHLORAMBUCIL] |  | 1500 nM | 2.73 pmol/µL | 60.4% | 30.2 10e3·k | 3500 nM |  |  | 18.4 pmol/µL | 2700 nM |  |  | 1700 nM | 5.1 µM |  | 5.1 µM | 0.75 |  | 
4 | N[C@@H](Cc1ccc(N(CCCl)CCCl)cc1)C(=O)O [MELPHALAN] | 1.2 µM |  | 2.88 pmol/µL | 85.3% | 10.3 10e3·k | 1600 nM |  | 0.11 | 21.9 pmol/µL | 900 nM | 2.2 µM |  |  |  |  |  |  | 300 nM | 500 nM

Source: ChEMBL document CHEMBL1135412, “Synthesis and in vitro evaluation of quaternary ammonium derivatives of chlorambucil and melphalan, anticancer drugs designed for the chemotherapy of chondrosarcoma” (J Med Chem, 2002)
